From patent publication US9199967B2, “Substituted heterocyclic amine compounds as cholestryl ester-transfer protein (CETP) inhibitors” (Dr. Reddy's Laboratories Ltd., priority 2011, dated 2015)

Biological target: T1, rCETP (Homo sapiens, UniProt P11597)
T1 sequence (P11597 18-493): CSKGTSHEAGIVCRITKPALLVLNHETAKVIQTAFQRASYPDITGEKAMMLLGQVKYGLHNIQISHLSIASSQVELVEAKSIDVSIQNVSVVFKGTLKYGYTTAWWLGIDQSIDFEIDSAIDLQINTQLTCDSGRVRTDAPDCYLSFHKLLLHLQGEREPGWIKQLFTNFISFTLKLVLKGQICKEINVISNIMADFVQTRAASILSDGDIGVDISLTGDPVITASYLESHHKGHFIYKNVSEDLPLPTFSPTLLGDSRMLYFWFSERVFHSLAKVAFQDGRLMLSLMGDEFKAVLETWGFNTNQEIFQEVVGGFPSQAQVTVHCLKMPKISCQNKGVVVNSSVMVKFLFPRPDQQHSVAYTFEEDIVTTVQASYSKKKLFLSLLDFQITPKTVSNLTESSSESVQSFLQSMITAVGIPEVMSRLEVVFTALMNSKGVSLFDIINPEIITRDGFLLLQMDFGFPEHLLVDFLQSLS
Assay: In vitro CETP inhibition assay, fluorometric kit (ROAR Biomedicals)
Type: biochemical
Conditions: rCETP 50 ng, 37° C., 90 minutes, fluorescence Ex 492 nm / Em 516 nm; read-out: IC50 (nM), inhibitory effect on CETP
Text: An in vitro cholesteryl ester transfer protein inhibition (CETP) assay using a commercially available fluorometric assay kit from ROAR Biomedicals, USA was used to measure the CETP inhibition activity of the compounds of this application. This assay kit uses a donor molecule containing a fluorescent self-quenched neutral lipid that is transferred to an acceptor molecule in the presence of CETP enzyme. The CETP-mediated transfer of the fluorescent neutral lipid to the acceptor molecule results in an increase in fluorescence (Excitation: 492 nm; Emission: 516 nm).
A 20 mM stock solution of compounds were prepared in 100% DMSO and further dilutions were made such that the final concentration of DMSO in the reaction mix was 1%. […] The assay was performed in 96 well microplates and in each well, the reaction mixture contained 190 μl of assay buffer (150 mM NaCl, 10 mM Tris and 2 mM EDTA, pH-7.4), 4 μl of donor particle, 4 IA of acceptor particle, rCETP (50 ng) and 2 μl of test compound at varying final concentration of 0.1, 1, 10, 100, 1000 & 10000 nM. Two control reactions were performed, one without test compound (positive control) and the other without the rCETP (negative control). The reactions were incubated at 37° C. for 90 minutes and the reaction plate was transferred to a PCR machine MX3005P and the fluorescence units (FLU) were quantified (Excitation: 492 nm; Emission: 516 nm).
The negative control values were subtracted from the positive control as well as all the test values to correct for background fluorescence. The percentage inhibition of activity is calculated by using the following equation: % Inhibition of CETP activity=[100−(100×(FLU in test/FLU in positive control))].
The half maximal inhibitory concentration (IC50) was determined using the BIOGRAPH software (version no. 3.3).

Row | SMILES | IC50 [nM]
1 | CC1(C)CCc2cc(CN(Cc3cc(C(F)(F)F)cc(C(F)(F)F)c3)c3ncc(C(N)=O)cn3)c(N(CC3CC3)CC3CC3)nc21 [Example 9, 2-(((2-(bis(cyclopropylmethyl)amino)-7,7-dimethyl-6,7-dihydro-5H-cyclopenta[b]pyridin-3-yl)methyl)(3,5-bis(trifluoromethyl)benzyl)amino) pyrimidine-5-carboxamide] | ~94
2 | CC(=O)c1cnc(N(Cc2cc(C(F)(F)F)cc(C(F)(F)F)c2)Cc2cc3c(nc2N(CC2CC2)CC2CC2)C(C)(C)CC3)nc1 [Example 4, 1-(2-(((2-(bis(cyclopropylmethyl)amino)-7,7-dimethyl-6,7-dihydro-5H-cyclopenta[b]pyridin-3-yl)methyl)(3,5-bis(trifluoromethyl)benzyl)amino)pyrimidin-5-yl)ethanone] | ~50
3 | CC1CCCc2cc(CN(Cc3cc(C(F)(F)F)cc(C(F)(F)F)c3)c3ncc(N4CCOCC4)cn3)c(N(CC3CC3)CC3CC3)nc21 (stereo not drawn) [Example 11, 3-(((3,5-bis(trifluoromethyl)benzyl)(5-morpholinopyrimidin-2-yl)amino)methyl)-N,N-bis(cyclopropylmethyl)-8-methyl-5,6,7,8-tetrahydroquinolin-2-amine] | ~40
4 | CC1(C)CCc2cc(CN(Cc3cc(C(F)(F)F)cc(C(F)(F)F)c3)c3ncc(-c4ccon4)cn3)c(N(CC3CC3)CC3CC3)nc21 [Example 7, 3-(((3,5-bis(trifluoromethyl)benzyl)(5-(isoxazol-3-yl)pyrimidin-2-yl)amino)methyl)-N,N-bis(cyclopropylmethyl)-7,7-dimethyl-6,7-dihydro-5H-cyclopenta[b]pyridin-2-amine] | ~33
5 | CC1CCc2cc(CN(Cc3cc(C(F)(F)F)cc(C(F)(F)F)c3)c3ncc(N4CCOCC4)cn3)c(N(CC3CC3)CC3CC3)nc21 (stereo not drawn) [Example 10, 3-(((3,5-bis(trifluoromethyl)benzyl)(5-morpholinopyrimidin-2-yl)amino)methyl)-N,N-bis(cyclopropylmethyl)-7-methyl-6,7-dihydro-5H-cyclopenta[b]pyridin-2-amine] | ~90
6 | CC1(C)CCc2cc(CN(Cc3cc(C(F)(F)F)cc(C(F)(F)F)c3)c3ccc4[nH]c(=O)oc4c3)c(N(CC3CC3)CC3CC3)nc21 [Example 17, 6-(((2-(bis(cyclopropylmethyl)amino)-7,7-dimethyl-6,7-dihydro-5H-cyclopenta[b]pyridin-3-yl)methyl)(3,5-bis(trifluoromethyl)benzyl)amino)benzo[d]oxazol-2(3H)-one] | ~16
7 | CC1(C)CCc2cc(CN(Cc3cc(C(F)(F)F)cc(C(F)(F)F)c3)c3ncc(-c4cc[nH]n4)cn3)c(N(CC3CC3)CC3CC3)nc21 [Example 6, 3-(((5-(1H-pyrazol-3-yl)pyrimidin-2-yl)(3,5-bis(trifluoromethyl)benzyl)amino)methyl)-N,N-bis(cyclopropylmethyl)-7,7-dimethyl-6,7-dihydro-5H-cyclopenta[b]pyridin-2-amine] | ~29
8 | CC1(C)CCc2cc(CN(Cc3cc(C(F)(F)F)cc(C(F)(F)F)c3)c3ncc(N4CCCC4=O)cn3)c(N(CC3CC3)CC3CC3)nc21 [Example 2, 1-(2-(((2-(bis(cyclopropylmethyl)amino)-7,7-dimethyl-6,7-dihydro-5H-cyclopenta[b]pyridin-3-yl)methyl)(3,5-bis(trifluoromethyl)benzyl)amino)pyrimidin-5-yl) pyrrolidin-2-one] | ~29
9 | CC1(C)CCc2cc(CN(Cc3cc(C(F)(F)F)cc(C(F)(F)F)c3)c3ncc(N4CCOCC4)cn3)c(N(CC3CC3)CC3CC3)nc21 [Example 3, 3-(((3,5-bis(trifluoromethyl)benzyl)(5-morpholinopyrimidin-2-yl)amino)methyl)-N,N-bis(cyclopropylmethyl)-7,7-dimethyl-6,7-dihydro-5H-cyclopenta[b]pyridin-2-amine] | ~20
